Test results as given in patent publication US20020151526A1, “Bile-acid prodrugs of L-dopa and their use in the sustained treatment of parkinsonism” (priority 2000, published 2002).

Key:
Human IBAT Transporter = target: T1, Human IBAT Transporter (Homo sapiens, UniProt Q12908); experiment: Electrogenic transport in Xenopus oocytes expressing IBAT; type: cell-based; conditions: relative to glycodeoxycholate, test compound 100 μM
T1 sequence (Q12908 1-348): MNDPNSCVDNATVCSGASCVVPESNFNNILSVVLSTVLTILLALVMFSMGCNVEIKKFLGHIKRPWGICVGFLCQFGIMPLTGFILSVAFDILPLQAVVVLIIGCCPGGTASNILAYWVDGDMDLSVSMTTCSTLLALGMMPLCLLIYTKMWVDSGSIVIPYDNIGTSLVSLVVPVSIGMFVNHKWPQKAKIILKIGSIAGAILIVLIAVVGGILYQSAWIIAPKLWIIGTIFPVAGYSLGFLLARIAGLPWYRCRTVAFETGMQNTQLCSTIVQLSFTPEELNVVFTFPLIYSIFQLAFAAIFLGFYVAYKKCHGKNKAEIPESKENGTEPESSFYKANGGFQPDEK
Protocol: Human IBAT Transporter cDNAs were subcloned into a modified pGEM plasmid that contains 5′ and 3′ untranslated sequences from the Xenopus β-actin gene. These sequences increase RNA stability and protein expression. Plasmid cDNA was linearized and used as template for in vitro transcription (Epicentre Technologies transcription kit, 4:1 methylated:non-methylated GTP).
Xenopus oocyte isolation. Xenopus laevis frogs were anesthetized by immersion in Tricaine ([…] in deionized water) for 15 min. Oocytes were removed and digested in frog ringer solution (90 mM NaCl, 2 mM KCl, 1 mM MgCl2, 10 mM NaHEPES, pH 7.45, no CaCl2) with 1 mg/mL collagenase (Worthington Type 3) for 80-100 min with shaking. The oocytes were washed 6 times, and the buffer changed to frog ringer solution containing CaCl2(1.8 mM). Remaining follicle cells were removed if necessary. Cells were incubated at 16° C., and each oocyte injected with […] RNA in […] solution.
Electrophysiology measurements. Transport currents were measured 2-14 days after injection, using a standard two-electrode electrophysiology set-up (Geneclamp 500 amplifier, Digidata 1320/PCLAMP software and ADInstruments hardware and software were used for signal acquisition). Electrodes ([…]) were microfabricated using a Sutter Instrument puller and filled with 3M KCl. The bath was directly grounded (transporter currents were less than 0.3 μA). Bath flow was controlled by an automated perfusion system (ALA Scientific Instruments, solenoid valves).
For transporter pharmacology, oocytes were clamped at −60 to −90 mV, and continuous current measurements acquired using PowerLab Software and an ADInstruments digitizer. Current signals were lowpass filtered at 20 Hz and acquired at 4-8 Hz. All bath and drug-containing solutions were frog ringers solution containing CaCl2. Drugs were applied for 10-30 seconds until the induced current reached a new steady-state level, followed by a control solution until baseline currents returned to levels that preceded drug application. […]

[1] = cited from earlier work; for half-life: human, in vivo

Row | Compound | % Max. (GDC) response (Human IBAT Transporter) [%] | half-life [1] [h] | oral bioavailability of levodopa ([1]; from conventional formulations of levodopa/carbidopa (e.g. Sinemet)) | administered dose reaching the CNS intact ([1]; in patients)
1 | CC(CCC(=O)NC(Cc1ccc(O)c(O)c1)C(=O)O)C1CCC2C3C(O)CC4CC(O)CCC4(C)C3CC(O)C12C (stereo not shown) [(101), Cholyl-DOPA] | 0 |  |  | 
2 | C[C@H](CCC(=O)N[C@@H](Cc1ccc2oc(=O)oc2c1)C(=O)O)[C@H]1CC[C@H]2[C@@H]3[C@H](O)C[C@@H]4C[C@H](O)CC[C@]4(C)[C@H]3C[C@H](O)[C@]12C [(104), Cholyl-Dopa-(3,4-carbonate)] | 25 |  |  | 
3 | C[C@@](Cc1ccc(O)c(O)c1)(NN)C(=O)O [carbidopa] |  | ~2 |  | 
4 | N[C@@H](Cc1ccc(O)c(O)c1)C(=O)O [levodopa, L-dihydroxyphenylalanine] |  | ~2 | 84-99% | less than 1%
5 | Cholyl-DOPA-(4-pivaloyloxymethyl) [(102)] | 104 |  |  | 
